Measured values reported in patent US20210030698A1, “GEL CONTAINING ZERUMBONE FROM BITTER GINGER (ZINGIBER ZERUMBET) FOR CURATIVE TREATMENT OF DIABETIC ULCERS” (INSTITUTO NACIONAL DE PESQUISAS DA AMAZÔNIA ? INPA, priority 2018, published 2021).

What was measured:
mice [1] = experiment: hot plate test pain model; assay type: in vivo; conditions: hot plate 49-54° C.
Artemia salina = experiment: in vitro cytotoxicity test on Artemia salina
Experimental: In the in vitro cytotoxicity tests, zerumbone produced mortality for Artemia salina of CL50—45 ug/ml, showing a positive correlation between antitumor and anti-inflammatory activities.

mice [2] = experiment: analgesic activity in chemical and thermal models of pain (acetic acid, formalin, capsaicin); assay type: in vivo
rat paw edema = experiment: anti-inflammatory activity, carrageenan rat paw edema; assay type: in vivo; conditions: croton oil and arachidonic acid models
[3] = barbiturate sleep (sodium pentobarbital); assay type: in vivo; conditions: sodium pentobarbital (nembutal)

C/C1=C\CC(C)(C)/C=C/C(=O)/C(C)=C/CC1 [zerumbone]
latency of the animals in the hot plate test (mice [1]): significantly increased
CL50 mortality for Artemia salina (Artemia salina): 45 µg/mL
analgesic activity against pain models acetic acid, formalin and capsaicin (mice [2]; administered orally and intraperitoneally): significant, dose-dependent analgesic activity
analgesic effect in chemical and thermal models of pain (mice [2]; doses of 250 to 1000 mg/kg, mice): potent analgesic effect
anti-inflammatory effect, inhibition of carrageenan inflammatory response in rat paw edema (rat paw edema): significant and dose-dependent anti-inflammatory effects
barbiturate sleep recovery time (T.R) [3]: approximately 600 minutes
